Measured values reported in the supplement of paper PMC10307832.

Experiments:
Assay in all cases: relative viability (nuclei count vs DMSO), 5 days (fraction); higher = more cells survive
[1] = compound: CCn1c(-c2nonc2N)nc2c(C#CC(C)(C)O)ncc(OC[C@H]3CCCNC3)c21 + C[C@@H](Oc1cc(-c2cnn(C3CCNCC3)c2)cnc1N)c1c(Cl)ccc(F)c1Cl [Crizotinib] (partner 1 µM)
Summary of the method: (§1)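 The day after seeding in 1536-well plates, lung cancer cell lines were treated by pin tool with a single drug, or with a fixed anchor-drug dose together with five library-drug doses (not always all listed) in √10 steps. After 5 days, a combined fix-and-stain solution (final 0.05% Triton X-100, 1% formaldehyde, 1 ug/ml Hoechst) was added. Nuclei counted on 4× images gave relative viability as treated counts over vehicle counts, reported as the median of duplicate plates.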

BAM7 + Lapatinib = compound: CCOC1=CC=CC=C1N=NC2=C(NN(C2=O)C3=NC(=CS3)C4=CC=CC=C4)C [BAM7] + CS(=O)(=O)CCNCc1ccc(-c2ccc3ncnc(Nc4ccc(OCc5cccc(F)c5)c(Cl)c4)c3c2)o1 [Lapatinib] (partner 2 µM)
Summary of the method: as §1

[2] = compound: CCn1c(-c2nonc2N)nc2c(C#CC(C)(C)O)ncc(OC[C@H]3CCCNC3)c21 + Nc1ncn([C@H]2C[C@H](O)[C@@H](CO)O2)c(=O)n1 [Decitabine] (partner 2 µM)
Summary of the method: as §1

[3] = compound: CCn1c(-c2nonc2N)nc2c(C#CC(C)(C)O)ncc(OC[C@H]3CCCNC3)c21 + O=C(c1cc(Cc2n[nH]c(=O)c3ccccc23)ccc1F)N1CCN(C(=O)C2CC2)CC1 [Olaparib] (partner 8 µM)
Summary of the method: as §1

Cell Line | relative viability ([1]; first compound 0.01 µM) | relative viability ([1]; first compound 0.03162 µM) | relative viability ([1]; first compound 0.1 µM) | relative viability ([1]; first compound 0.3162 µM) | relative viability ([1]; first compound 1 µM) | relative viability (BAM7 + Lapatinib; first compound 0.5 µM) | relative viability (BAM7 + Lapatinib; first compound 5 µM) | relative viability (BAM7 + Lapatinib; first compound 15.81 µM) | relative viability (BAM7 + Lapatinib; first compound 50 µM) | relative viability ([2]; first compound 0.01 µM) | relative viability ([2]; first compound 0.03162 µM) | relative viability ([2]; first compound 0.1 µM) | relative viability ([2]; first compound 0.3162 µM) | relative viability ([2]; first compound 1 µM) | relative viability ([3]; first compound 0.01 µM) | relative viability ([3]; first compound 0.03162 µM) | relative viability ([3]; first compound 0.1 µM) | relative viability ([3]; first compound 0.3162 µM) | relative viability ([3]; first compound 1 µM)
NCI-H2347 | 0.7 | 0.815 | 0.723 | 0.708 | 0.813 | 0.968 | 1.26 | 0.899 | 1.03 | 0.603 | 0.575 | 0.616 | 0.577 | 0.605 | 0.567 | 0.512 | 0.6 | 0.608 | 0.549
NCI-H2405 | 0.888 | 0.911 | 0.704 | 0.798 | 0.848 | 1.1 | 1.26 | 1.12 | 1.1 | 0.782 | 0.75 | 0.721 | 0.692 | 0.647 | 0.836 | 0.844 | 0.821 | 0.8 | 0.915
NCI-H3122 | 0.276 | 0.312 | 0.264 | 0.283 | 0.276 | 1.09 | 1.04 | 1.04 | 1.03 | 0.499 | 0.364 | 0.427 | 0.436 | 0.414 | 0.591 | 0.62 | 0.632 | 0.559 | 0.609
PC-3 [JPC-3] | 0.944 | 0.988 | 1.04 | 0.909 | 0.993 | 0.425 | 0.472 | 0.427 | 0.412 | 0.832 |  | 0.836 | 0.769 | 0.78 | 1.07 |  | 1.15 | 1.03 | 1.09
PC-14 | 0.925 | 0.863 | 0.944 | 0.94 | 0.839 | 0.334 | 0.324 | 0.309 | 0.351 | 0.25 | 0.2 | 0.222 | 0.197 | 0.29 | 0.309 | 0.244 | 0.34 | 0.378 | 0.412
RERF-LC-KJ | 0.808 | 0.788 | 0.815 | 0.829 | 0.837 | 0.868 | 0.815 | 0.802 | 0.791 | 0.694 | 0.643 | 0.684 | 0.59 | 0.656 | 1 | 0.87 | 0.854 | 0.854 | 0.797
SK-LU-1 | 1.11 | 0.817 | 0.925 | 0.978 | 0.987 | 0.78 | 1.02 | 0.846 | 0.897 | 0.669 | 0.639 | 0.75 | 0.611 | 0.574 | 0.49 | 0.723 | 0.482 | 0.43 | 0.461
SK-MES-1 | 0.989 | 0.982 | 0.963 | 0.909 | 0.982 | 0.488 | 0.438 | 0.423 | 0.505 | 0.329 | 0.397 | 0.399 | 0.353 | 0.378 | 0.658 | 0.72 | 0.678 | 0.649 | 0.702
SW 1573 | 0.699 | 0.767 | 0.734 | 0.762 | 0.704 | 1.17 | 1.23 | 1.09 | 1.33 | 0.462 | 0.388 | 0.448 | 0.42 | 0.337 | 0.553 | 0.39 | 0.477 | 0.399 | 0.364
UMC-11 | 0.704 | 0.695 | 0.65 | 0.645 | 0.547 | 1.02 | 0.981 | 1.12 | 1.15 | 0.533 | 0.46 | 0.6 | 0.686 | 0.607 | 0.402 | 0.391 | 0.655 | 0.392 | 0.359
